Consider 3 compounds from patent US20240226255A9, “COMPOSITIONS AND METHODS FOR ACTIVATING NK CELLS” (The Regents of the University of California, priority 2021, published 2024).

The subject of one data set is YAC-1 cells. Briefly: 4 h 51Chromium release assay of mouse NK cells cultured with monocytes ± LPS against YAC-1. Type of data set: cell-based. The following applies: IL-2-treated WT NK cells + monocytes from control WT littermates; LPS 20 ng/mL. On the procedure:
(§1) Afterward, NK cells were used as effector cells in a standard 4 h ^51Chromium release assay against YAC-1 cells. […] NK cells were treated as described in (FIG. 4A) and afterward the supernatant was removed from the co-cultures and the levels of IFN-γ secretion were determined using specific ELISAs. *P<0.05 was obtained for differences in secretion of IFN-γ between untreated and LPS-treated NK cells cultured with monocytes from control littermates or those from Cox-2flox/flox;LysMCre/+ mice (FIG. 4B). NK cells were prepared as described in (FIG. 4A) and used as effector cells against DCs derived from monocytes from either wild type or Cox-2flox/flox; LysMCre/+ mice in a standard 4 h ^51Chromium release assay. […] One of several representative experiments is shown in this figure.
(§2) Similar results to those seen with YAC-1 targets were also seen when control and Cox-2flox/flox;LysMCre/+ DCs were used as targets (FIG. 4C).

In data set [1] the test system is NK cells. Briefly: IFN-γ ELISA of mouse NK cell-monocyte co-cultures ± LPS. The class given is cell-based. The following applies: LPS 20 ng/mL. The protocol:
as §1, §2
(In general: An ELISA detects its analyte on a solid surface through an enzyme-linked reagent.)

Data set [2] has as its system DCs from wild type or Cox-2flox/flox;LysMCre/+ mice. As to the kind of experiment: 4 h 51Chromium release assay of mouse NK cells ± LPS against monocyte-derived DCs. Type of data set: cell-based. The note with it: IL-2-treated WT NK cells + WT or KO monocytes. The protocol:
as §1, §2

The subject of another data set is OSCSCs. As to the kind of experiment: 4 h 51Chromium release assay of human NK cells against OSCSCs. The note with it: LPS 20 ng/mL, 24-48 h. Type of data set: cell-based. The protocol: (§3) Afterward, the cytotoxicity against OSCSCs was assessed using a standard 4 h ^51Chromium release assay. […] NK cells were prepared as described in FIG. 5A. […] One of several representative experiments is shown in this figure.
(§4) Human NK cells were purified from healthy donors and left untreated or treated with IL-2 (1000 U/mL) or the combination of IL-2 (1000 U/mL) and anti-CD16mAb (3 μg/mL) in the presence of sAJ2 (NK cell:sAJ2, 1:3), autologous monocytes (NK cell:monocytes, 1:1) or the combination of sAJ2 (NK cell:sAJ2, 1:3) and autologous monocytes (NK cell:monocytes, 1:1) for 24-48 h. Afterward, the cytotoxicity against OSCSCs cells was assessed using a standard 4 h ^51Chromium release assay. […] NK cells were prepared as described in FIG. 6A and after the treatment period, the supernatants were removed from the co-cultures and the levels of IFN-γ cytokine were measured with specific ELISA. *P<0.05 was obtained for the differences in cytotoxicity and IFN-γ secretion between human NK cells cultured in media and those treated with sAJ2, monocytes or the combination of sAJ2 and monocytes. One of several representative experiments is shown in this figure (FIG. 8B). […] After an overnight incubation, the supernatants were collected and the levels of IFN-γ, IL-15, IFN-α, and IL-12 were determined by ELISAs in a multiplexed format using Luminex technology (FIG. 8C). […]

The subject of data set [3] is NK cells. Briefly: IFN-γ ELISA of human NK cell cultures. The class given is cell-based. The following applies: LPS 20 ng/mL, 24-48 h. The protocol: as §3, §4
Data set [4] deals with vector-alone transfected HEp2 cells. Briefly: 51Cr release: NK cell lysis of Sulindac treated vector-alone transfected HEp2 cells. Type of data set: cell-based. The following applies: Sulindac 50-200 μm for 3-4 hours, vs non-treated HEp2 cells. The protocol: . (FIG. 17A) 4×10^6 vector-alone transfected HEp2 cells were labeled with ^51Cr for 1 hour at 37° C. […] Treatment of NK cells with IL-2 was carried out for 8-12 hours before their addition to the target cells. […] After an overnight incubation the cells were washed to remove the drugs, and the tumor cells were then co-cultured in the presence of untreated and IL-2 (500 u/ml) treated NK cells. After 48 hours of incubation the supernatants were removed from the NK-HEp2 cell co-cultures and assayed for released GM-CSF.

Data set [5] has as its system BM cells, splenocytes, spleen-purified NK cells, oral gingiva cells. As to the kind of experiment: IFN-γ ELISA of IL-2 cultured tissue cells from mice given ZOL or NaCl, then molar extraction. Type of data set: in vivo. The following applies: for ZOL-induced decrease in IFN-γ: oral tooth extraction site. On the procedure:
(§5) 7-week old female WT mice, and female Rag2^−/− mice (B6(Cg)-Rag2tm1.1Cgn/J null mutation in recombination-activating gene-2 resulting in the deficiency of B and T lymphocytes) were purchased from the Jackson Laboratory, Bar Harbor, ME. The UCLA Animal Research Committee reviewed and approved all experimental protocols involving animals (ARC 1997-136). Female WT mice and Rag2^−/− mice were injected with the single injection of 500 μg/kg ZOL or 0.9% NaCl vehicle solution via tail vein.
(§6) After 1-week of the ZOL and NaCl injection maxillary first molar was extracted as described previously. During the extraction procedure, mice were anesthetized via continuous inhalation of 2-4% isoflurane mixed with oxygen and placed on a custom-made surgical table in a supine position using the fixed positioner on the maxillary incisors. Immediately prior to tooth extraction, 5.0 mg/kg carprofen was subcutaneously injected, and mice received 5.0 mg/kg carprofen injection every 24 h for 48 h. Mice were sacrificed and various tissues were studied 4-weeks after the tooth extraction.
Single cell-suspension from each tissue of WT and Rag2^−/− female mice were activated with IL-2 (10,000 U/ml) for 5 days before the supernatants/culture media were harvested after to determine the levels of IFN-γ secretion. IFN-γ ELISAs were performed and standard curve was generated as described previously. A standard curve was generated by either two or three-fold dilution of recombinant IFN-γ provided by the manufacturer to analyze and obtain the IFN-γ concentration (Biolegend, San Diego, CA).
WT and RAG2 mice were administered with either 0.9% NaCl or ZOL (500 μg/kg) via tail vein followed by maxillary left first molar extraction as described in Materials and Methods section. Week 4 after the tooth extraction, animals were sacrificed, BM cells, splenocytes, splenocytes-purified NK cells and oral gingiva cells were cultured at (1×10^6 cells/ml) each treated with IL-2 (10000 U/ml) for 5 days, after which the supernatants were harvested and the levels of IFN-γ were determined using specific ELISA. Modulation of IFN-7 by ZOL in both WT and RAG2 mice models were determined, and fold change in comparison to NaCl controls was calculated for each tissue.

Data set [6] is described as follows: Osteonecrosis of the jaw (ONJ) after ZOL injection and molar extraction. Type of data set: in vivo. The note with it: Rag2−/− mice injected with ZOL. The protocol:
as §5, §6

A further data set deals with st63 cells. The following applies: Rag2−/− mice.

Protocol for st63 cells: RAG2 mice were administered with either 0.9% NaCl or ZOL (500 μg/kg) via tail vein followed by maxillary left first molar extraction as described in Materials and Methods section. […] Week 4 after the tooth extraction, animals were sacrificed, BM cells (n=9), splenocytes (n=9), and NK cells purified from splenocytes (n=5) were cultured at (1×10^6 cells/ml) each treated with IL-2 (10000 U/ml) for 5 days, after which the cells were used as effector cells against tumor targets. Cytotoxicity assays were performed using standard 4-hour ^51Cr release assay against st63 cells, and the LU 30/10^6 cells were determined using inverse number of cells required to lyse 30% of st63 cells×100 (FIG. 16B).
Single cell-suspension from each tissue and spleen-purified NK cells from WT and Rag2^−/− mice female mice were activated with IL-2 (10,000 U/ml) for 5 days and were used as effector cells on day 5. […] After that, the supernatants were harvested from each sample and released radioactivity was counted using the gamma counter. The percentage (%) specific cytotoxicity was calculated as follows:
% Cytotoxicity=Experimental cpm−spontaneous cpm/Total cpm−spontaneous cpm • Lytic Units (LU) 30/10^6 was calculated by using the inverse of the number of effector cells needed to lyse 30% of tumor target ST63 cells×100.

Lipopolysaccharide [LPS]: in the data set with YAC-1 cells, the “NK cells' ability to lyse YAC-1 cells” value was “complete shutdown”. The values for the IFN-γ secretion entry with NK cells [1] (IL-2-treated WT NK cells + monocytes from Cox-2flox/flox;LysMCre/+ mice) and in the data set with NK cells [3] were “increasing IFN-γ secretion significantly” and “increasing”, respectively. Also, the “amount of IFN-γ secreted by the NK cells” value in the data set with NK cells [1] (IL-2-treated WT NK cells + monocytes from control WT littermates) is “increased”. Moreover, in data set [2], the “NK cell cytotoxicity against wild type and Cox-2flox/flox;LysMCre/+ DCs” value is reported as “decreased”. Besides, the “NK cell-mediated cytotoxicity against OSCSCs” value in the data set on OSCSCs was “loss”.

On to `CC1=C(CC(=O)O)c2cc(F)ccc2/C1=C\c1ccc([S+](C)[O-])cc1` (stereo not shown) [Sulindac], for which, in [4], the “NK cell lysis of treated HEp2 cells” value was “increased lysis”.

As for `O=P(O)(O)C(O)(Cn1ccnc1)P(=O)(O)O` [ZOL, zolendronate], the “ZOL-induced increase in IFN-γ” value in data set [5] (BM, Rag2−/− mice) is recorded as 50-75%; in data set [5] (BM, WT mice), 300-500%; in [5] (NK cells purified from splenocytes, WT mice), 20-90%; in [5] (splenocytes, WT mice), 100-240%. In addition, in data set [5] (BM, Rag2−/− mice, vs NaCl), the “IFN-γ secretion after ZOL injections” value is listed as “significantly increased”. Moreover, the “Fold change in IFN-γ secretion (ZOL group/NaCl group)” value in data set [5] (Bone marrow, Rag2−/− (Rag KO) mice, ZOL 500 μg/kg) was 1.5-1.75 fold; in [5] (Bone marrow, WT mice, ZOL 500 μg/kg tail vein, week 4 after tooth extraction, cells + IL-2 5 days), 4-6 fold; in data set [5] (Gingiva, Rag2−/− (Rag KO) mice, ZOL 500 μg/kg), 0.22-0.35 fold; in data set [5] (Gingiva, WT mice, ZOL 500 μg/kg) it was 0.3-0.5 fold; in [5] (Spleen, Rag2−/− (Rag KO) mice, ZOL 500 μg/kg), 0.5-0.66 fold; in data set [5] (Spleen, WT mice, ZOL 500 μg/kg), 2-3.4 fold. The “Fold change in IFN-γ secretion (ZOL group/NaCl group)” value in [5] (Spleen-purified NK cells, Rag2−/− (Rag KO) mice, ZOL 500 μg/kg) is recorded as 0.35-0.42 fold; in data set [5] (Spleen-purified NK cells, WT mice, ZOL 500 μg/kg), 1.2-1.9 fold. Moreover, the “ZOL-induced drop in IFN-γ” value is on record as 58-65% in [5] (NK cells purified from splenocytes, Rag2−/− mice) and 34-50% in data set [5] (splenocytes, Rag2−/− mice). Moreover, the “ZOL-induced decrease in IFN-γ” value in [5] (Rag2−/− mice) is 65-78%; in data set [5] (WT mice) it was 50-70%. Moreover, the “secretion of IFN-γ after ZOL intake” value in [5] (spleen, spleen-purified NK cells and oral gingiva cells, Rag2−/− mice) is “blocked”. In addition, the ONJ result in data set [6] is “no ONJ was seen”. Also, the “NK cell-mediated cytotoxicity after ZOL injections” value in the data set with st63 cells (BM, vs NaCl) is on record as “significantly increased”. Besides, in the data set with st63 cells (spleen and spleen-purified NK cells), the “NK cell-mediated cytotoxicity with ZOL” value was “blocked”.
